# Read-outs that look alike come from different tables or passages of the source. Marks after values point to notes of the source that are not given here.
# Legend:
# normal ICR mice = test: Blood glucose level of normal mice after oral administration of glucose; type: in vivo; settings: for Blood glucose 0 min: 0 min (fasting, 1 h after dosing); for Blood glucose 30 min: 30 min after glucose 2.0 g/kg; for Blood glucose 60 min: 60 min after glucose 2.0 g/kg; for Blood glucose 120 min: 120 min after glucose 2.0 g/kg; for AUC of blood glucose: oral glucose 2.0 g/kg; for Reduction of the area under the curve (AUC) of blood glucose: vs. normal control group
# Description: Test Example 2 Evaluation of the in vivo activity of the compounds of the present invention: the effect on the blood glucose level of normal mice after oral administration of glucose
# ICR mice (male, 18-20 g), purchased from Beijing Vital River Laboratories Co., Ltd., were fed adaptively for 4 days, and randomly divided into 4 groups, namely normal control group, positive control group, and two groups of test compounds, with 8 mice in each group.
# The aforementioned stock solutions were diluted to appropriate concentrations with double distilled water.
# The mice were fasted overnight. […] After 1 h, blood was collected at 0 min (fasting), and then mice in each group were administered with glucose (2.0 g/kg) solution by gavage. Blood was collected at 30 min, 60 min, and 120 min after glucose administration. The blood glucose level was measured using glucose oxidase-peroxidase method, and the area under the blood glucose curve was calculated.
# The data were expressed as mean±SD. The comparison between multiple groups was performed by one-way analysis of variance, and the comparison between two groups was performed by Dunnett's t test. Statistical graphing was performed using Graphpad Prism software.
# [1] = test system: spontaneous type 2 diabetes mellitus db/db mice; test: Pharmacodynamic effect on spontaneous type 2 diabetes mellitus db/db mice; type: in vivo; settings: for AUC of blood glucose: 0-24 h; for Concentration of blood glucose 0 h / Concentration of blood glucose 1 h / Concentration of blood glucose 2 h / Concentration of blood glucose 4 h / Concentration of blood glucose 6 h / Concentration of blood glucose 8 h / Concentration of blood glucose 24 h: fasting; for Concentration of blood glucose 0 h: 0 h before administration; for HbA1c: 28th day; for Random blood glucose, the 22nd day (title: 28th day): column head 22nd day
# Description: Test example 4 Pharmacodynamic effect of the compounds of the present invention on spontaneous type 2 diabetes mellitus db/db mice
# Spontaneous type 2 diabetes mellitus db/db mice and the normal control db/m mice (male, 5-6 weeks old) were used. The db/db mice were randomly divide into […] based on random blood glucose, fasting blood glucose, percentage of blood glucose reduction at 40 min, blood triglycerides, total blood cholesterol, and body weight, which were model group (con), positive control group and three groups of test compound with different doses (n=10).
# Mice were administered with drugs by gavage.
# The mice were fasted for 2 h, and then the 0 h (fasting) blood samples were collected. Then the mice in each group were administered with drugs by gavage, and blood samples were collected at 1 h, 2 h, 4 h, 6 h, 8 h and 24 h after administration. The blood glucose level was measured using glucose oxidase-peroxidase method, and the area under the blood glucose curve was calculated. Moreover, urine samples were collected 2 h and 4 h after administration to determine the concentration of urine glucose.
# On the 15th day of continuous administration, before the mice were fasted, blood samples were collected to measure the random blood glucose. Then the mice were fasted and administered with the compounds, and after 2 h, blood samples were collected to measure the fasting blood glucose. […]
# The data were expressed as mean±SEM (n=10). The comparison between multiple groups was performed by one-way analysis of variance, and the comparison between two groups was performed by Dunnett's t test. Statistical graphing was performed using Graphpad Prism software.
# mice = settings: for Death rate (%): 7 days
# Description: Test Example 5 Research on Safety of the Compounds of the Present Invention
# The compounds of the present invention were subjected to the following acute toxicity studies in mice.
# The symptoms of toxicity reaction and death time were recorded.
# On the day before administration, the animals were fasted but provided with water for 17 h. Each test drug group was administered with the corresponding test drug once by gavage, and the blank control group was administered with the same dose of vehicle once by gavage.
# [2] = 0.5 mg/kg single administration
# [3] = 1.0 mg/kg single administration
# [4] = 2.0 mg/kg single administration
# [5] = 22nd day of continuous administration, 0.5, 1.0 and 2.0 mg/kg
smiles,measurement,setting,value
"CS[C@H]1O[C@@H](c2ccc(C)c(Cc3ccc4c(c3)OCCO4)c2)[C@H](O)[C@@H](O)[C@@H]1O (stereo in doubt) [Compound 2, 2-[3-(2,3-dihydro-1,4-benzodioxin-6-ylmethyl)-4-methylphenyl]-6-(methylthio)oxane-3,4,5-triol]",Blood glucose 0 min,normal ICR mice; 2 mg/kg by gavage,75.9 ± 6.7 mg/dL
same,Blood glucose 30 min,normal ICR mice; 2 mg/kg by gavage,207.8 ± 13.6 mg/dL
same,Blood glucose 60 min,normal ICR mice; 2 mg/kg by gavage,119.3 ± 12.5 mg/dL
same,Blood glucose 120 min,normal ICR mice; 2 mg/kg by gavage,73.0 ± 11.4 mg/dL
same,AUC of blood glucose,normal ICR mice; 2 mg/kg by gavage,248.8 ± 18.0 mg·h/dL
same,Reduction of the area under the curve (AUC) of blood glucose,normal ICR mice; 2 mg/kg,37.4%
same,Blood glucose 0 min,normal ICR mice; 4 mg/kg by gavage,63.6 ± 8.3 mg/dL
same,Blood glucose 30 min,normal ICR mice; 4 mg/kg by gavage,189.5 ± 14.3 mg/dL
same,Blood glucose 60 min,normal ICR mice; 4 mg/kg by gavage,103.2 ± 5.1 mg/dL
same,Blood glucose 120 min,normal ICR mice; 4 mg/kg by gavage,78.2 ± 13.9 mg/dL
same,AUC of blood glucose,normal ICR mice; 4 mg/kg by gavage,227.1 ± 13.1 mg·h/dL
same,Reduction of the area under the curve (AUC) of blood glucose,normal ICR mice; 4 mg/kg,42.9%
same,AUC of blood glucose,[1]; [2],7046 ± 253.0 mg·h/dL
same,Concentration of blood glucose 0 h,[1]; [2],486.3 ± 32.9 mg/dL
same,Concentration of blood glucose 1 h,[1]; [2],386.8 ± 22.3 mg/dL
same,Concentration of blood glucose 2 h,[1]; [2],362.7 ± 27.2 mg/dL
same,Concentration of blood glucose 4 h,[1]; [2],252.3 ± 9.7 mg/dL
same,Concentration of blood glucose 6 h,[1]; [2],169.3 ± 4.4 mg/dL
same,Concentration of blood glucose 8 h,[1]; [2],134.2 ± 4.6 mg/dL
same,Concentration of blood glucose 24 h,[1]; [2],477.7 ± 25.9 mg/dL
same,"Fasting blood glucose, the 15th day",[1]; 0.5 mg/kg,185.0 ± 13.6 mg/dL
same,"Random blood glucose, the 15th day",[1]; 0.5 mg/kg,307.9 ± 18.4 mg/dL
same,"Fasting blood glucose, the 22nd day",[1]; 0.5 mg/kg,193.8 ± 14.7 mg/dL
same,HbA1c,[1]; 0.5 mg/kg,4.7 ± 0.3 %
same,"Random blood glucose, the 22nd day (title: 28th day)",[1]; 0.5 mg/kg,272.4 ± 16.5 mg/dL
same,AUC of blood glucose,[1]; [3],6952 ± 295.8 mg·h/dL
same,Concentration of blood glucose 0 h,[1]; [3],552.2 ± 24.2 mg/dL
same,Concentration of blood glucose 1 h,[1]; [3],412.5 ± 13.1 mg/dL
same,Concentration of blood glucose 2 h,[1]; [3],362.3 ± 23.7 mg/dL
same,Concentration of blood glucose 4 h,[1]; [3],256.0 ± 10.1 mg/dL
same,Concentration of blood glucose 6 h,[1]; [3],161.8 ± 6.9 mg/dL
same,Concentration of blood glucose 8 h,[1]; [3],124.3 ± 5.8 mg/dL
same,Concentration of blood glucose 24 h,[1]; [3],470.7 ± 25.6 mg/dL
same,"Fasting blood glucose, the 15th day",[1]; 1.0 mg/kg,197.9 ± 11.2 mg/dL
same,"Random blood glucose, the 15th day",[1]; 1.0 mg/kg,322.7 ± 11.1 mg/dL
same,"Fasting blood glucose, the 22nd day",[1]; 1.0 mg/kg,204.1 ± 12.2 mg/dL
same,HbA1c,[1]; 1.0 mg/kg,4.8 ± 0.2 %
same,"Random blood glucose, the 22nd day (title: 28th day)",[1]; 1.0 mg/kg,258.4 ± 12.8 mg/dL
same,AUC of blood glucose,[1]; [4],6507 ± 269.6 mg·h/dL
same,Concentration of blood glucose 0 h,[1]; [4],519.3 ± 30.7 mg/dL
same,Concentration of blood glucose 1 h,[1]; [4],377.0 ± 9.0 mg/dL
same,Concentration of blood glucose 2 h,[1]; [4],309.7 ± 13.1 mg/dL
same,Concentration of blood glucose 4 h,[1]; [4],259.0 ± 14.9 mg/dL
same,Concentration of blood glucose 6 h,[1]; [4],153.3 ± 10.7 mg/dL
same,Concentration of blood glucose 8 h,[1]; [4],129.5 ± 12.8 mg/dL
same,Concentration of blood glucose 24 h,[1]; [4],427.0 ± 20.2 mg/dL
same,"Fasting blood glucose, the 15th day",[1]; 2.0 mg/kg,162.7 ± 12.1 mg/dL
same,"Random blood glucose, the 15th day",[1]; 2.0 mg/kg,240.4 ± 16.4 mg/dL
same,"Fasting blood glucose, the 22nd day",[1]; 2.0 mg/kg,159.5 ± 8.5 mg/dL
same,HbA1c,[1]; 2.0 mg/kg,4.0 ± 0.2 %
same,"Random blood glucose, the 22nd day (title: 28th day)",[1]; 2.0 mg/kg,194.7 ± 14.0 mg/dL
same,Blood triglycerides (TG) level,[1]; [5],significantly lower
same,Concentration of blood cholesterol,[1]; [5],no effect
same,Concentration of urine glucose,"[1]; 2 h after single administration, 0.5, 1.0 and 2.0 mg/kg",increased
same,Concentration of urine glucose,"[1]; 4 h after single administration, 0.5, 1.0 and 2.0 mg/kg",not increased
same,"Effect on body weight, food intake and water intake","[1]; continuous administration, 0.5, 1.0 and 2.0 mg/kg",no significant effect
same,Duration of blood glucose lowering,"[1]; single administration, 0.5, 1.0 and 2.0 mg/kg",up to 24 h
same,Deaths D 1,"mice; female, mouse, in vivo, 3000 mg/kg, 1 day",0
same,Deaths D 2,"mice; female, mouse, in vivo, 3000 mg/kg, 2 day",0
same,Deaths D 3,"mice; female, mouse, in vivo, 3000 mg/kg, 3 day",0
same,Deaths D 4,"mice; female, mouse, in vivo, 3000 mg/kg, 4 day",0
same,Deaths D 5,"mice; female, mouse, in vivo, 3000 mg/kg, 5 day",0
same,Deaths D 6,"mice; female, mouse, in vivo, 3000 mg/kg, 6 day",0
same,Deaths D 7,"mice; female, mouse, in vivo, 3000 mg/kg, 7 day",0
same,Death rate (%),"mice; female, mouse, in vivo, 3000 mg/kg",0%
same,Deaths D 1,"mice; male, mouse, in vivo, 3000 mg/kg, 1 day",0
same,Deaths D 2,"mice; male, mouse, in vivo, 3000 mg/kg, 2 day",0
same,Deaths D 3,"mice; male, mouse, in vivo, 3000 mg/kg, 3 day",0
same,Deaths D 4,"mice; male, mouse, in vivo, 3000 mg/kg, 4 day",1
same,Deaths D 5,"mice; male, mouse, in vivo, 3000 mg/kg, 5 day",0
same,Deaths D 6,"mice; male, mouse, in vivo, 3000 mg/kg, 6 day",1
same,Deaths D 7,"mice; male, mouse, in vivo, 3000 mg/kg, 7 day",0
same,Death rate (%),"mice; male, mouse, in vivo, 3000 mg/kg",40%
"CCOc1ccc(Cc2cc([C@@H]3O[C@H](CO)[C@@H](O)[C@H](O)[C@H]3O)ccc2Cl)cc1 [Dapagliflozin, reference compound]",Blood glucose 0 min,normal ICR mice; 2 mg/kg by gavage,71.8 ± 6.6 mg/dL
same,Blood glucose 30 min,normal ICR mice; 2 mg/kg by gavage,213.2 ± 26.6 mg/dL
same,Blood glucose 60 min,normal ICR mice; 2 mg/kg by gavage,122.2 ± 16.1 mg/dL
same,Blood glucose 120 min,normal ICR mice; 2 mg/kg by gavage,83.0 ± 13.5 mg/dL
same,AUC of blood glucose,normal ICR mice; 2 mg/kg by gavage,257.7 ± 24.0 mg·h/dL
same,Reduction of the area under the curve (AUC) of blood glucose,normal ICR mice; 2 mg/kg,35.2%
same,AUC of blood glucose,[1]; [4],8866 ± 361.1***^ mg/dl · h
same,Concentration of blood glucose 0 h,[1]; [4],488.5 ± 29.2 mg/dL
same,Concentration of blood glucose 1 h,[1]; [4],386.4 ± 16.5 mg/dL
same,Concentration of blood glucose 2 h,[1]; [4],333.8 ± 13.9 mg/dL
same,Concentration of blood glucose 4 h,[1]; [4],265.8 ± 9.1 mg/dL
same,Concentration of blood glucose 6 h,[1]; [4],209.3 ± 8.0 ^ mg/dl
same,Concentration of blood glucose 8 h,[1]; [4],176.7 ± 10.2 mg/dL
same,Concentration of blood glucose 24 h,[1]; [4],649.4 ± 40.0 mg/dL
same,"Fasting blood glucose, the 15th day",[1]; 2.0 mg/kg,183.0 ± 11.2 mg/dL
same,"Random blood glucose, the 15th day",[1]; 2.0 mg/kg,344.7 ± 24.1 mg/dL
same,"Fasting blood glucose, the 22nd day",[1]; 2.0 mg/kg,191.8 ± 11.0 mg/dL
same,HbA1c,[1]; 2.0 mg/kg,5.1 ± 0.3 %
same,"Random blood glucose, the 22nd day (title: 28th day)",[1]; 2.0 mg/kg,317.0 ± 16.4 mg/dL
same,Death rate (%),"mice; female, 3000 mg/kg once by gavage",0%
same,Deaths D 1,"mice; female, 3000 mg/kg once by gavage, day 1",0
same,Deaths D 2,"mice; female, 3000 mg/kg once by gavage, day 2",0
same,Deaths D 3,"mice; female, 3000 mg/kg once by gavage, day 3",0
same,Deaths D 4,"mice; female, 3000 mg/kg once by gavage, day 4",0
same,Deaths D 5,"mice; female, 3000 mg/kg once by gavage, day 5",0
same,Deaths D 6,"mice; female, 3000 mg/kg once by gavage, day 6",0
same,Deaths D 7,"mice; female, 3000 mg/kg once by gavage, day 7",0
same,Death rate (%),"mice; male, 3000 mg/kg once by gavage",80%
same,Deaths D 1,"mice; male, 3000 mg/kg once by gavage, day 1",0
same,Deaths D 2,"mice; male, 3000 mg/kg once by gavage, day 2",0
same,Deaths D 3,"mice; male, 3000 mg/kg once by gavage, day 3",1
same,Deaths D 4,"mice; male, 3000 mg/kg once by gavage, day 4",1
same,Deaths D 5,"mice; male, 3000 mg/kg once by gavage, day 5",0
same,Deaths D 6,"mice; male, 3000 mg/kg once by gavage, day 6",2
same,Deaths D 7,"mice; male, 3000 mg/kg once by gavage, day 7",0
